{"source": "patent US6319932A", "about": "“Oxazolidinones useful as alpha 1A adrenoceptor antagonists” (Merck & Co., Inc., priority 1999, dated 2001)", "key": {"[1]": {"molecular_target": "T1, human alpha 1a adrenergic receptor (Homo sapiens, UniProt P35348)", "T1 construct": "expressed in transfected cells; host or cells: stably transfected human alpha 1a cell line (ATCC CRL 11140), membranes", "T1 sequence (P35348 1-466)": "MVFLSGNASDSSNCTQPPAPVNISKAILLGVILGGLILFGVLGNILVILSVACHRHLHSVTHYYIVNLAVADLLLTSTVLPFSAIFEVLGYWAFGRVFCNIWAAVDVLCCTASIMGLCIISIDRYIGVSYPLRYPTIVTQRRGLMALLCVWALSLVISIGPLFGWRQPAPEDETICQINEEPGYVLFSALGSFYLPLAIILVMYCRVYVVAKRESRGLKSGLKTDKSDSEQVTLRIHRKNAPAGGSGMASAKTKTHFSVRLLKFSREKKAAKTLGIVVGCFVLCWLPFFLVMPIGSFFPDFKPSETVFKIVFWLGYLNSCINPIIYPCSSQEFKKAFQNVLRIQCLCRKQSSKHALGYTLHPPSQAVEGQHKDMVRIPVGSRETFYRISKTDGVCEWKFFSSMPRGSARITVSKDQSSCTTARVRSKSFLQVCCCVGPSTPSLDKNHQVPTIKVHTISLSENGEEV", "test": "Screening Assay: Alpha 1a Adrenergic Receptor Binding ([125I]-HEAT competition binding)", "settings": "membranes of stably transfected human alpha 1a cell line; 100 pM [125I]-HEAT", "protocol": "Screening Assay: Alpha 1a Adrenergic Receptor Binding\nMembranes prepared from the stably transfected human alpha 1a cell line (ATCC CRL 11140) were used to identify compounds that bind to the human alpha 1a adrenergic receptor. These competition binding reactions (total volume=200 μl) contained 50 mM Tris-HCl pH. 7.4, 5 mM EDTA, 150 mM NaCl, 100 pM [^125 I]-HEAT, membranes prepared from the alpha 1a cell line and increasing amounts of unlabeled ligand. Reactions were incubated at room temperature for one hour with shaking. Reactions were filtered onto Whatman GF/C glass fiber filters with a Inotec 96 well cell harvester. Filters were washed three times with ice cold buffer and bound radioactivity was determined (Ki)."}, "[2]": {"test_system": "human alpha 1b adrenergic receptor", "test": "Selective Binding Assays, alpha 1b ([125I]-HEAT competition binding)", "settings": "alpha 1a versus alpha 1b", "protocol": "(§1) Membranes prepared from stably transfected human alpha 1d and alpha 1b cell lines (ATCC CRL 11138 and CRL 11139, respectively) were used to identify compounds that selectively bind to the human alpha 1a adrenergic receptor. These competition binding reactions (total volume=200 μl ) contained 50 mM Tris-HCl pH. 7.4, 5 mM EDTA, 150 mM NaCl, 100 pM [^125 I]-HEAT, membranes prepared from cell lines transfected with the respective alpha 1 subtype expression plasmid and increasing amounts of unlabeled ligand. Reactions were incubated at room temperature for one hour with shaking. Reactions were filtered onto Whatman GF/C glass fiber filters with a Inotec 96 well cell harvester. Filters were washed three times with ice cold buffer and bound radioactivity was determined (Ki)."}, "[3]": {"test_system": "human alpha 1d adrenergic receptor", "test": "Selective Binding Assays, alpha 1d ([125I]-HEAT competition binding)", "settings": "alpha 1a versus alpha 1d", "protocol": "as §1"}}, "data": [{"smiles": "N#Cc1ccccc1C1(C#N)CCN(CCCNC(=O)N2C(=O)O[C@@H](C(N)=O)[C@@H]2c2ccc(F)c(F)c2)CC1", "note": "[Example 10]", "values": [{"measurement": "Ki", "setting": "[1]", "value": 3.9, "unit": "nM"}]}, {"smiles": "O=C(c1ccccc1)[C@@H]1OC(=O)N(C(=O)NCCCN2CCC(c3ccc(F)cc3)CC2)[C@H]1c1ccc(F)c(F)c1", "note": "[Example 11]", "values": [{"measurement": "selectivity in binding to alpha 1a receptors versus alpha 1b receptors", "setting": "[2]", "value": "about 27 fold"}, {"measurement": "selectivity in binding to alpha 1a receptors versus alpha 1d receptors", "setting": "[3]", "value": "about 76 fold"}]}]}
